Experimental findings from patent US11759455B2, “Substituted 1H-imidazo[4,5-b]pyridin-2(3H)-ones and their use as GLUN2B receptor modulators” (JANSSEN PHARMACEUTICA NV, priority 2016, dated 2023) are described below.

This assay has as its target T1, human GluN1/GluN2B NMDA receptors (Homo sapiens, UniProt Q13224).
T1 construct: expressed in transfected cells
Briefly: Cell-based calcium flux (FLIPR) assay on cloned human NR1/NR2B ion channels expressed in mammalian cells (standard and HTS buffer variants).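 Also: stable Tet-On inducible cell line, Ca2+ influx triggered by glutamate at about EC40 plus 10 µM glycine, fluorescent dye read-out over 5 min, normalized to control wells.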 On the technique in general: Calcium flux is commonly read through the fluorescence of an indicator in the cells.

[1] abbreviates: HTS assay buffer (1.5 mM MgCl2 in dye loading buffer; 150 mM NaCl, 3 mM KCl in assay buffer), human GluN1/GluN2B, read-out: NR2B IC50 (μM) HTS assay.
The mark [2] stands for this setting: standard assay buffer (0.5 mM MgCl2 in dye loading buffer; 137 mM NaCl, 4 mM KCl in assay buffer), human GluN1/GluN2B, read-out: NR2B IC50 (μM) standard assay.
The mark [3] stands for this setting: standard assay buffer (0.5 mM MgCl2 dye loading; 137 mM NaCl, 4 mM KCl assay buffer), human GluN1/GluN2B cells, read-out: NR2B IC50 (μM) standard assay.

Where two headings read alike, the source gives them in different places.

T1 sequence (Q13224 27-1484, other chains not shown): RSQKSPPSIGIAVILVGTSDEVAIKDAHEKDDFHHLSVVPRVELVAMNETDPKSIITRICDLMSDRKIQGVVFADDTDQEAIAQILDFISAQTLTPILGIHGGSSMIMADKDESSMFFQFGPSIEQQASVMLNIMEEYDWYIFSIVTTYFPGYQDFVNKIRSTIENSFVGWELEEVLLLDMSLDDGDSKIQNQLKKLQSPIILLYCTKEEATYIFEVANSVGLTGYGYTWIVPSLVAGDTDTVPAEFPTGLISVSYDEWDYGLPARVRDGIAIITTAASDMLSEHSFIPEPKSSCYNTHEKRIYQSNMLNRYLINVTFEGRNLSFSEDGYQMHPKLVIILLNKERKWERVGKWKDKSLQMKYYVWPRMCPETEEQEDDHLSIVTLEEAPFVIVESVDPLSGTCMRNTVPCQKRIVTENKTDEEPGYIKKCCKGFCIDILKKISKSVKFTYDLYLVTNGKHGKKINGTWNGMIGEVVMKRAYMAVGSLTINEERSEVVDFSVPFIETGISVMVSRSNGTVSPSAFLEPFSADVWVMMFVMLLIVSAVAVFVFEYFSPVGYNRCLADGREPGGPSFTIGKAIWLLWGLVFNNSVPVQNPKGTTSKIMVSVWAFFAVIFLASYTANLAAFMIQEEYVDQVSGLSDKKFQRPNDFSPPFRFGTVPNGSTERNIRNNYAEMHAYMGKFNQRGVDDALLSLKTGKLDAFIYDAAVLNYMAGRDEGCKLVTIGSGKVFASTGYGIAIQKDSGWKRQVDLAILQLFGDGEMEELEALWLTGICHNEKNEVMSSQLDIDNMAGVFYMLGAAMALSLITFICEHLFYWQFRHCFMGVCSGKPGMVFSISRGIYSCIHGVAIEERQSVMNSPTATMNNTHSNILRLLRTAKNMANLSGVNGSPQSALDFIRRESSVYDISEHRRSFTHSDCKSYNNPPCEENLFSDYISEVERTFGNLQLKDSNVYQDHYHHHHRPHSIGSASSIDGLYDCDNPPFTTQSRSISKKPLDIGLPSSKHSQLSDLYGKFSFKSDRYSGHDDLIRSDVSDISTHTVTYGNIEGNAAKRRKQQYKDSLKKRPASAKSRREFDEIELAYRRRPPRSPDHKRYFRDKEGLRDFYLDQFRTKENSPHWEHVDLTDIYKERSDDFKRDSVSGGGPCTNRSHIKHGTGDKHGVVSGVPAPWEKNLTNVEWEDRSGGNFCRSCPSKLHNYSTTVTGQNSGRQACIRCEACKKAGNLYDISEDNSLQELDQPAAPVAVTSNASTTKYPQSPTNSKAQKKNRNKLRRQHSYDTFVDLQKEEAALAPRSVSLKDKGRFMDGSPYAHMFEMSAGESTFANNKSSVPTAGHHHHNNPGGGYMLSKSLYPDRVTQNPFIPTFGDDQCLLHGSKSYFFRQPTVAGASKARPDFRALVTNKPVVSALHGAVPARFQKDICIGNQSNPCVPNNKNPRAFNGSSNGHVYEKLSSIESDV

On to `CCOc1ccccc1-c1cnc2[nH]c(=O)n(CC(=O)NC)c2c1` [Example 441, 2-[6-(2-Ethoxyphenyl)-2-oxo-3H-imidazo[4,5-b]pyridin-1-yl]-N-methyl-acetamide], for which the half-inhibitory concentration (IC50) – broadly, the concentration that gives 50% inhibition – under setting [1] was 2.44 µM.
Take `Cc1noc(Cn2c(=O)n(C)c3ncc(-c4ccc(C(F)(F)F)s4)cc32)n1` [Example 569, 3-Methyl-1-[(3-methyl-1,2,4-oxadiazol-5-yl)methyl]-6-[5-(trifluoromethyl)-2-thienyl]imidazo[4,5-b]pyridin-2-one]: the half-inhibitory concentration (IC50) under setting [2] was 0.412 µM.
For the compound `Cn1c(=O)n(Cc2cccnc2)c2cc(-c3cccc(C(F)F)c3)cnc21` [Example 363, 6-[3-(Difluoromethyl)phenyl]-3-methyl-1-(3-pyridylmethyl)imidazo[4,5-b]pyridin-2-one], under setting [2], the IC50 is 0.053 µM.
As for `Cn1c(=O)n(CC(=O)N2CCC2)c2cc(-c3ccc(C4CC4)s3)cnc21` [Example 105, 1-[2-(Azetidin-1-yl)-2-oxo-ethyl]-6-(5-cyclopropyl-2-thienyl)-3-methyl-imidazo[4,5-b]pyridin-2-one], the IC50 under setting [3] was 0.081 µM.
For the compound `O=c1[nH]c2ncc(-c3cccc(F)c3F)cc2n1Cc1cncc(F)c1` [Example 303, 6-(2,3-Difluorophenyl)-1-[(5-fluoro-3-pyridyl)methyl]-3H-imidazo[4,5-b]pyridin-2-one], the 50% inhibitory concentration (IC50) under setting [3] stood at 0.03 µM.
On to `COC1CN(CCn2c(=O)[nH]c3ncc(-c4cccc(C(F)(F)F)c4)cc32)C1` [Example 149, 1-[2-(3-Methoxyazetidin-1-yl)ethyl]-6-[3-(trifluoromethyl)phenyl]-3H-imidazo[4,5-b]pyridin-2-one], for which, under setting [3], the 50% inhibitory concentration (IC50) came out at 0.756 µM.
With `Cc1cccc(-c2cnc3c(c2)n(Cc2cncc(F)c2)c(=O)n3C)c1F` [Example 352, 6-(2-Fluoro-3-methyl-phenyl)-1-[(5-fluoro-3-pyridyl)methyl]-3-methyl-imidazo[4,5-b]pyridin-2-one], the concentration for half-maximal inhibition (IC50) under setting [2] was 0.052 µM.
As to `Cn1c(=O)n(Cc2ccccn2)c2cc(-c3cccc(C(F)(F)F)c3)cnc21` [Example 251, 3-Methyl-1-(2-pyridylmethyl)-6-[3-(trifluoromethyl)phenyl]imidazo[4,5-b]pyridin-2-one], the IC50 under setting [3] is 0.8 µM.
`CN(C)c1cccc(-c2cnc3[nH]c(=O)n(CC4CC4)c3c2)c1` [Example 473, 1-(Cyclopropylmethyl)-6-[3-(dimethylamino)phenyl]-3H-imidazo[4,5-b]pyridin-2-one]: the half-maximal inhibitory concentration (IC50) under setting [1] was 15.7 µM.
Take `CCC(=O)Cn1c(=O)n(C)c2ncc(-c3ccc(F)c(C)c3F)cc21` [Example 391, 6-(2,4-Difluoro-3-methyl-phenyl)-3-methyl-1-(2-oxobutyl)imidazo[4,5-b]pyridin-2-one]: the IC50 under setting [2] stood at 0.026 µM.
Take `O=c1[nH]c2ncc(-c3cccc(C(F)(F)F)c3)cc2n1Cc1ccc(F)nc1` [Example 238, 1-[(6-Fluoro-3-pyridyl)methyl]-6-[3-(trifluoromethyl)phenyl]-3H-imidazo[4,5-1D]pyridin-2-one]: under setting [3], the concentration for half-maximal inhibition (IC50) amounted to 0.088 µM.
Take `Cc1cc(Cn2c(=O)[nH]c3ncc(-c4ccc(F)cc4)cc32)no1` [Example 12, 6-(4-Fluorophenyl)-1-[(5-methylisoxazol-3-yl)methyl]-3H-imidazo[4,5-b]pyridin-2-one]: the IC50 under setting [3] came to 0.029 µM.
As to `O=c1[nH]c2ncc(-c3cc(F)cc(F)c3)cc2n1CCN1CCC(O)C1` (stereo not drawn) [Example 175, 6-(3,5-Difluorophenyl)-1-[2-(3-hydroxypyrrolidin-1-yl)ethyl]-3H-imidazo[4,5-b]pyridin-2-one], under setting [3], the IC50 came out at 2.11 µM.
Regarding `CCCNCCn1c(=O)[nH]c2ncc(-c3cc(F)cc(F)c3)cc21` [Example 189, 6-(3,5-Difluorophenyl)-1-[2-(propylamino)ethyl]-3H-imidazo[4,5-b]pyridin-2-one], under setting [3], the IC50 worked out at 2.57 µM.
On to `Cc1cc(F)ccc1-c1cnc2[nH]c(=O)n(CC(=O)NC3CC3)c2c1` [Example 36, N-Cyclopropyl-2-[6-(4-fluoro-2-methyl-phenyl)-2-oxo-3H-imidazo[4,5-b]pyridin-1-yl]acetamide], for which the IC50 under setting [3] stood at 0.159 µM.
For the compound `COc1ccc(-c2cnc3[nH]c(=O)n(CC(=O)NC4CC4)c3c2)cc1C` [Example 451, N-Cyclopropyl-2-[6-(4-methoxy-3-methyl-phenyl)-2-oxo-3H-imidazo[4,5-b]pyridin-1-yl]acetamide], the half-inhibitory concentration (IC50) under setting [1] turned out to be 1.03 µM.
With `Cc1cccc(-c2cnc3c(c2)n(CC(=O)N2CC(F)(F)C2)c(=O)n3C)c1` [Example 581, 1-[2-(3,3-Difluoroazetidin-1-yl)-2-oxo-ethyl]-3-methyl-6-(m-tolyl)imidazo[4,5-b]pyridin-2-one], under setting [2], the IC50 was 0.032 µM.
Turning to `O=C(Cn1c(=O)[nH]c2ncc(-c3cccc(C(F)(F)F)c3)cc21)N1CCCCC1` [Example 206, 1-[2-Oxo-2-(1-piperidyl)ethyl]-6-[3-(trifluoromethyl)phenyl]-3H-imidazo[4,5-b]pyridin-2-one], the IC50 under setting [3] was determined as 0.163 µM.
In the case of `Cc1cccnc1Cn1c(=O)[nH]c2ncc(-c3cc(F)cc(F)c3)cc21` [Example 318, 6-(3,5-Difluorophenyl)-1-[(3-methyl-2-pyridyl)methyl]-3H-imidazo[4,5-b]pyridin-2-one], the IC50 under setting [2] was more than 10 µM.
On to `Cc1cc(-c2cnc3c(c2)n(Cc2cccnc2)c(=O)n3C)ccc1F` [Example 45, 6-(4-Fluoro-3-methyl-phenyl)-3-methyl-1-(3-pyridylmethyl)imidazo[4,5-b]pyridin-2-one], for which, under setting [3], the IC50 is 0.038 µM.
On to `O=c1[nH]c2ncc(-c3cccc(C(F)(F)F)c3)cc2n1Cc1ccncn1` [Example 23, 1-(Pyrimidin-4-ylmethyl)-6-[3-(trifluoromethyl)phenyl]-3H-imidazo[4,5-b]pyridin-2-one], for which the IC50 under setting [3] turned out to be 0.22 µM.
In the case of `Cc1cccc(-c2cnc3c(c2)n(CC(=O)N2CC(F)(F)C2)c(=O)n3C)c1F` [Example 418, 1-[2-(3,3-Difluoroazetidin-1-yl)-2-oxo-ethyl]-6-(2-fluoro-3-methyl-phenyl)-3-methyl-imidazo[4,5-b]pyridin-2-one], under setting [2], the IC50 came out at 0.019 µM.
With `CCC(=O)Cn1c(=O)[nH]c2ncc(-c3cccc(C(F)(F)F)c3)cc21` [Example 240, 1-(2-Oxobutyl)-6-[3-(trifluoromethyl)phenyl]-3H-imidazo[4,5-b]pyridin-2-one], the IC50 under setting [3] turned out to be 0.022 µM.
On to `O=c1[nH]c2ncc(-c3cccc(C(F)(F)F)c3)cc2n1CC1CC1` [Example 211, 1-(Cyclopropylmethyl)-6-[3-(trifluoromethyl)phenyl]-3H-imidazo[4,5-b]pyridin-2-one], for which the IC50 under setting [3] came out at 0.115 µM.
For the compound `Cc1cc(F)cc(-c2cnc3c(c2)n(Cc2cccnn2)c(=O)n3C)c1` [Example 381, 6-(3-Fluoro-5-methyl-phenyl)-3-methyl-1-(pyridazin-3-ylmethyl)imidazo[4,5-b]pyridin-2-one], under setting [2], the IC50 is 0.037 µM.
Take `O=c1[nH]c2ncc(-c3cccc(C(F)(F)F)c3)cc2n1Cc1ncc(F)cn1` [Example 256, 1-[(5-Fluoropyrimidin-2-yl)methyl]-6-[3-(trifluoromethyl)phenyl]-3H-imidazo[4,5-b]pyridin-2-one]: under setting [3], the concentration for half-maximal inhibition (IC50) stood at 0.134 µM.
`Cn1c(=O)n(Cc2cccnn2)c2cc(-c3cccc(C(F)F)c3)cnc21` [Example 377, 6-[3-(Difluoromethyl)phenyl]-3-methyl-1-(pyridazin-3-ylmethyl)imidazo[4,5-b]pyridin-2-one]: the concentration for half-maximal inhibition (IC50) under setting [2] amounted to 0.03 µM.
